Measured values taken from patent US20120015901A1, “METHODS AND PREPARATIONS FOR PROTECTING CRITICALLY ILL PATIENTS” (priority 2009, published 2012).
Where two headings read alike, the source gives them in different places.

What was measured:
[1] = test system: parentally fed, hyperglycemic, burn-injured rabbits
Description: Our research group previously developed an animal model of critical illness that has shown to mimic the dynamic endocrine, immunological and metabolic changes characteristic of human critical illness. In this animal model we investigated the effect of critical illness on spermidine levels and the effects of spermidine-administration during critical illness on survival, organ function (clinical, biochemical, and cyto/histopathological effects), and on metabolic, inflammatory/immunological and cellular pathways. Animals were treated according to the “Principals of Laboratory Animal Care” formulated by the U.S. National Society for Medical Research and the “Guide for the Care and Use of Laboratory Animals” prepared by the National Institutes of Health. The protocol was approved by the K.U. Leuven Ethical Review Board for Animal Research. Adult male New Zealand White rabbits, weighing approximately 3 kg, were purchased from a local rabbitry, were housed individually with free access to water, hay and regular rabbit chow, and were exposed to artificial light for 14 h per day. This animal model of prolonged critical illness mimics the human condition (Weekers et al. (2003) Endocrinol 144, 5329-5338). Indeed, the critically ill animals undergo the same metabolic, immunological and endocrine disturbances and development of organ failure and muscle wasting as the human counterpart.
In our animal model, critical illness was induced by placing intravascular catheters, selectively destroying pancreatic β-cells by alloxan, followed by burn injury. […] The administration of alloxan was necessary to control both blood glucose and plasma insulin levels independently. The application of the burn wound is done 48 hours after alloxan-injection, at which time alloxan has done irreversible damage to the β-cells (selective β-cell necrosis, phase 4 after alloxan-injection). After imposing a burn wound, animals were brought to […], because this reflects most the human situation of critical illness. Non-injured, healthy rabbits served as control.
The effects of spermidine administration were investigated in parentally fed, hyperglycemic, burn-injured rabbits. The rabbits were purchased from a local rabbitry and weighed approximately 3-3.5 kg. The burn injury experiments were performed analoguous to those described above. After imposing the burn wound, animals received a continuous infusion of saline or spermidine (low dose ranging from 0.3-3 mg/day or high dose ranging from 30-300 mg/day).
At 09:00±1 h of […] (FIG. 3) animals were weighed, and under general anesthesia (30 mg/kg ketamine i.m. [Imalgene 1000; Merial, Lyon, France]; 0.15 ml/kg medetomidine i.m. [Orion, Espoo, Finland]), an ice-cold 10% solution of alloxan-monohydrate (150 mg/kg; Alloxan; Sigma-Aldrich, Bornem, Belgium) was injected slowly via a marginal ear vein. Afterward, the animals had free access to regular rabbit chow, hay and drinking water enriched with glucose to face alloxan-induced acute hypoglycemia.
At 10:00±1 h of Day 0 (FIG. 3), glycemia was measured to confirm hyperglycemia after alloxan (irreversible phase 4 after alloxan-injection). When glycemia exceeded 300 mg/dl, animals were considered eligible for the study. Under general anesthesia (see above), supplemented with 1.5 volume % isoflurane (Isoba Vet.; Schering-Plough, Brussels, Belgium) inhalation, animals were shaved and catheters were placed into the right jugular vein for intravenous infusion (4F; Vygon, Ecouen, France) and into the right carotid artery for blood sampling (5 Ch; Sherwood Medical, Tullamore, Ireland). A paravertebral block (5 ml Xylocaine 1%; Astra Zeneca, Brussels, Belgium) was performed and a full thickness burn injury of 20% body-surface area was imposed. Animals were then fitted to a homemade jacket to secure catheters and immediately returned to their cages.

critically ill rabbits = experiment: Toxicity of spermidine, sequential up-down allocation; format: in vivo, rabbit
Description: The toxicity of spermidine was assessed using a sequential up-down allocation technique. The administered dose of spermidine was determined by the response of the previous animal to a higher or lower dose (with incremental/decremental steps per 300 mg/d; minimum dose 600 mg/d). When the animal survived until day 4, this was considered as absence of acute toxicity. Mortality during the first 3 days was considered as acute toxicity. When there was no acute toxic effect, the next included animal would receive 300 mg spermidine/day more. When there was an acute toxic effect, the next included animal would receive 300 mg/day less (until the starting dose as a minimum). […] The protocol was otherwise similar as in the experiments described previously.

autophagy = experiment: Yeast autophagy measurements; format: cell-based
Description: Autophagy was monitored either by vacuolar localization of Atg8p using fluorescence microscopy of cells expressing an EGFP-Atg8 fusion protein (T. Kirisako et al. (1999) J Cell Biol 147, 435-446.) or by alkaline phosphatase (ALP) activity according to Kissova et al. (Kissova at al. (2004) J Biol Chem 279, 39068-39074) using BY4741 wild type strain transformed with and selected for stable insertion of pTN9 HindIII fragment (confirmed by PCR). In order to correct for intrinsic (background) ALP activity, BY4741 (without pTN9) have been simultaneously processed and ALP activity subtracted. For generation of EGFP-ATG8 constructs see section on Molecular Biology.

[2] = preliminary results, spermidine versus saline

NCCCCNCCCN [spermidine]
mortality ([1]; 0.3 to 3 mg spermidine per day (groups D, E; 2 groups of 7 animals)): 28%
mortality ([1]; 30 to 300 mg spermidine per day (groups A, B, C; 3 groups of 8 animals)): 12.5%
plasma and tissue levels of spermidine ([1]; already seen with doses of 1-200 mg spermidine per kg per day): could restore both plasma and tissue levels of spermidine
survival rate ([1]; benefit most pronounced for the higher doses): marked improved survival rate
AST levels (marker of liver dysfunction) ([1]; days following the initial hit): rapid and profound decrease in AST-levels
rise in plasma creatinine (marker of kidney function) ([1]; high dose 30-300 mg/day, low dose 0.3-3 mg/day): could be prevented
plasma spermidine concentration ([1]; higher doses 30-300 mg/day): maintained or increased the plasma spermidine to (supra)normal values
mortality of the animals (in words) ([1]; higher doses 30-300 mg/day/rabbit): reduce the mortality
plasma spermidine concentration ([1]; low doses 0.3-3 mg/day): minimal or no effect
mortality of the animals (in words) ([1]; low doses 0.3-3 mg/day/rabbit): reduce the mortality
kidney protection ([1]; low doses of spermidine): renoprotection
autophagy (key proteins) [1, 2]: stimulation of autophagy
mitochondrial function [1, 2]: improvement of mitochondrial function
rise in ureum (marker of kidney dysfunction and muscle wasting) ([1]; spermidine infusion): could also be prevented
blood pH and lactate levels during illness ([1]; spermidine infusion versus saline): maintain a normal pH and normal lactate levels
time of death after starting the spermidine infusion (critically ill rabbits; continuous infusion of approximately 600 mg/day, both of two animals): 28 h
dose without acute toxic effects (critically ill rabbits; half of the toxic dose, highest dose of the pilot study): 300 mg/day
dose with acute toxic effects (critically ill rabbits; mortality during the first 3 days): 600 mg/day
dose with acute toxic effects (critically ill rabbits; per kg body weight): approx 200 mg/kg/day
dose without acute toxic effects (critically ill rabbits; per kg body weight): approximately 100 mg/kg/day
autophagy (autophagy): strongly induces autophagy
